# Results: patent US20170198292A1, “Methods and Compositions for Modulating Lung Cancer Tumor Initiating Cells (TIC), and Oxytocin Receptor (OXTR) Modulatory Agents for Use in Practicing the Same” (The Board of Trustees of the Leland Stanford Junior …, priority 2014, published 2017)
# How the values were obtained:
# Format in all cases: cell-based, human
# [1] = tested on: regular H226 and H520 cells; assay: Proliferation of regular cancer cells; settings: for cell proliferation of regular H226 and H520 cells: 3-day treatment
# Protocol: All gene expression and survival data were obtained from publicly-available resources: NCI TCGA and NCBI GEO. Human lung cancer tissue samples were purchased from US Biomax. Cell imaging was acquired using a confocal laser scanning microscope at the Stanford Fluorescence Microscopy Core. FACS was done at the Stanford FACS core facility. All sphere-forming assays and mouse xenograft model were performed at the Stanford Transgenic, Knockout and Tumor Model Center. qRT-PCR and sequencing was performed at Stanford Protein and Nucleic Acid Facility. • A. Text mining of lung TIC associated literature. PubMed literatures were queried on Apr. 13, 2015, using the search term, (“Neoplastic Stem Cells”[majr] OR “tumor-propagating cells”[All Fields]) AND “lung cancer”[All Fields]. […] Words with a prefix “CD” followed by digits were extracted from the title and abstract of each article. Resulted terms were manually examined. Immune cell CD markers were excluded from the list. CD marker with positive sign, such as CD133+, was treated as different from CD133 or CD133−. The number of unique occurrence of each term is counted in titles and abstracts. Terms occurred in at least two different articles were selected for ranking by its occurrence frequency. • B. Primary Tumor Cell Preparation. SQCC samples were collected from patients according to protocols approved by the Stanford IRB board. Samples were washed, dissociated, and incubated in DNase and collagenase/dispase. After incubation, cell clusters and red blood cells were removed. The single cells were resuspended and prepared for cell culture and staining. • C. Microarray datasets. The TOGA lung cancer gene expression datasets were downloaded from the TOGA data portal on September 2012. […] Meta-analysis of correlations were performed using R package meta, where fixed and random effects estimates were calculated and inverse variance weighting was used for pooling. […] Quantitative IF imaging signal of human lung tissue samples were measured using the Bioquant image analysis software in the Nikon 8000 microscope and Leica DMI 6000B. • E. Flow Cytometry. […]
# [2] = tested on: tumor spheres of H226 and H520 cells; assay: Sphere-forming assay (tumor spheres / TIC growth)
# Protocol: All gene expression and survival data were obtained from publicly-available resources: NCI TCGA and NCBI GEO. Human lung cancer tissue samples were purchased from US Biomax. Cell imaging was acquired using a confocal laser scanning microscope at the Stanford Fluorescence Microscopy Core. FACS was done at the Stanford FACS core facility. All sphere-forming assays and mouse xenograft model were performed at the Stanford Transgenic, Knockout and Tumor Model Center. qRT-PCR and sequencing was performed at Stanford Protein and Nucleic Acid Facility. • A. Text mining of lung TIC associated literature. PubMed literatures were queried on Apr. 13, 2015, using the search term, (“Neoplastic Stem Cells”[majr] OR “tumor-propagating cells”[All Fields]) AND “lung cancer”[All Fields]. […] Words with a prefix “CD” followed by digits were extracted from the title and abstract of each article. Resulted terms were manually examined. Immune cell CD markers were excluded from the list. CD marker with positive sign, such as CD133+, was treated as different from CD133 or CD133−. The number of unique occurrence of each term is counted in titles and abstracts. Terms occurred in at least two different articles were selected for ranking by its occurrence frequency. • B. Primary Tumor Cell Preparation. SQCC samples were collected from patients according to protocols approved by the Stanford IRB board. Samples were washed, dissociated, and incubated in DNase and collagenase/dispase. After incubation, cell clusters and red blood cells were removed. The single cells were resuspended and prepared for cell culture and staining. • C. Microarray datasets. The TOGA lung cancer gene expression datasets were downloaded from the TOGA data portal on September 2012. No significant changes in available sample size were found during a recent check. These datasets were selected based on two criteria: explicit pathological diagnosis of SQCC and associated with an actual publication. Pearson or Spearman correlation analysis was used for the association study, depending on whether the distribution of the gene expression data is parametric or non-parametric. Multiple hypothesis testing was corrected using false discovery rates to select associations with a q value less than 0.1. Meta-analysis of correlations were performed using R package meta, where fixed and random effects estimates were calculated and inverse variance weighting was used for pooling. Survival data was extracted from all the datasets whenever they were available. Proportional hazards regression analysis was performed with the gene expression of OXTR and CD133 as covariates. Proportional hazard hypothesis was test based on weighted residuals. • D. Cell Culture and Imaging. H226, H520, HCC827, H522 and NL20 cell lines were purchased from ATCC and cultured in recommended cell medium for bulk cancer cell growth. HCC95 and H157 were from Dr. Sage's laboratory. APC conjugated mouse anti-CD133 Ab (BioLegend 14208), goat anti-OXTR Ab (Life Technologies ab87312) with anti-goat Alexa488 (Life Technologies A11055), rabbit anti-CD44 (Santa Cruz Biotech sc-7946) with anti-rabbit Alexa594 (Life Technologies A21207) and rabbit anti-OXT with anti-rabbit Alexa594 were used to stain CD133, OXTR, CD44 and OXT respectively in human tissue samples and cell lines for immunofluorescence (IF) imaging. Goat F(ab′)2 IgG (Life Technologies 11301C) and isotype control for rabbit primary Ab (Life Technology 08-6199) were used as isotype control of OXTR Ab and CD133 Ab. Quantitative IF imaging signal of human lung tissue samples were measured using the Bioquant image analysis software in the Nikon 8000 microscope and Leica DMI 6000B. • E. Flow Cytometry. Cells were stained with CD133, CD44 or OXTR Ab separately for single channel counting, and stained with CD133 and OXTR Ab for double channel counting and sorting. Cells were also stained for secondary Ab alone for subtraction of non-specific binding. […]
# [3] = tested on: tumor spheres derived from primary SQCC cells; assay: Sphere-forming assay, primary SQCC cells; settings: at 5 μM; three days
# Protocol: All gene expression and survival data were obtained from publicly-available resources: NCI TCGA and NCBI GEO. Human lung cancer tissue samples were purchased from US Biomax. Cell imaging was acquired using a confocal laser scanning microscope at the Stanford Fluorescence Microscopy Core. FACS was done at the Stanford FACS core facility. All sphere-forming assays and mouse xenograft model were performed at the Stanford Transgenic, Knockout and Tumor Model Center. qRT-PCR and sequencing was performed at Stanford Protein and Nucleic Acid Facility. • A. Text mining of lung TIC associated literature. PubMed literatures were queried on Apr. 13, 2015, using the search term, (“Neoplastic Stem Cells”[majr] OR “tumor-propagating cells”[All Fields]) AND “lung cancer”[All Fields]. […] Words with a prefix “CD” followed by digits were extracted from the title and abstract of each article. Resulted terms were manually examined. […] The number of unique occurrence of each term is counted in titles and abstracts. […] Meta-analysis of correlations were performed using R package meta, where fixed and random effects estimates were calculated and inverse variance weighting was used for pooling. […] Quantitative IF imaging signal of human lung tissue samples were measured using the Bioquant image analysis software in the Nikon 8000 microscope and Leica DMI 6000B. • E. Flow Cytometry. […]
# H226 and H520 cells = assay: Colony formation; settings: statistically significant at 0.5 μM, 5 μM and 10 μM
# Text: To determine whether the expression of OXTR is associated with the growth of regular cancer cells and TICs, we treated regular cancer cells and tumor spheres of SQCC cell lines with an OXTR specific inhibitor (Manning et al.,“Oxytocin and vasopressin agonists and antagonists as research tools and potential therapeutics,” Journal of neuroendocrinology (2012) 24: 609-628), L-368,899 (L3) to suppress its activity, or its natural ligand oxytocin (OXT) to induce its activity.
# ERK1/2 = ERK1/2 phosphorylation, western blot
SMILES,cell proliferation of regular H226 and H520 cells [1],"tumor sphere numbers ([2]; H226 and H520 cells, after 3 days of treatment, statistically significant at 5 μM and 10 μM)",sphere growth of tumor spheres derived from primary SQCC cells [3],colony formation of H226 and H520 cells (H226 and H520 cells),tumor sphere size vs solvent control ([2]; H226 and H520 tumor spheres treated for three days),"tumor sphere growth ([2]; both cell lines (H226, H520), statistically significant at as low as 10 nM)","phosphorylation of ERK1/2 in regular H226 and H520 cells (ERK1/2; 100 nM for two days, compared to solvent control)","phosphorylation of ERK1/2 in TICs (ERK1/2; 100 nM for two days, compared to solvent control, tumor spheres of H226 and H520)",proliferation in regular cancer cells ([1]; H226 and H520 cells),rescue of the inhibitory effect by increasing dose of OXT ([2]; H226 and H520),TIC growth ([2]; H226 and H520 spheres),"OXT induced increase of TIC growth ([2]; both H226 and H520 cells, co-treatment with OXT)","OXT induced phosphorylation of ERK1/2 (ERK1/2; CCs and TICs of H226 and H520 cell lines, co-treatment with OXT)"
"Cc1ccccc1N1CCN(S(=O)(=O)C[C@]23CC[C@H](C[C@@H]2NC(=O)[C@@H](N)CCS(C)(=O)=O)C3(C)C)CC1 [L3, (S)-2-amino-N-((1S,2S,4R)-7,7-dimethyl-1-((4-o-tolylpiperazin-1-lsulfonyl)methyl)bicyclo[2.2.1]heptan-2-yl)-4-(methylsulfonyl)butanamide]",neither L3 nor OXT affected the cell proliferation,dose-dependent decrease,significantly reduced the sphere growth,reduced the colony formation,,,,,,,,,
"CC[C@H](C)[C@@H]1NC(=O)[C@H](Cc2ccc(O)cc2)NC(=O)[C@@H](N)CSSC[C@@H](C(=O)N2CCC[C@H]2C(=O)N[C@@H](CC(C)C)C(=O)NCC(N)=O)NC(=O)[C@H](CC(N)=O)NC(=O)[C@H](CCC(N)=O)NC1=O [OXT, oxytocin]",neither L3 nor OXT affected the cell proliferation,,,,significantly larger,dose dependent increase,unchanged,greatly increased,,,,,
N#CC(=C(/N)Sc1ccccc1N)/C(C#N)=C(\N)Sc1ccccc1N [U0126],,,,,,,,,increased proliferation,could not be rescued,dose dependent inhibition,blocked,inhibited
